Columns and labels:
[1] = tested on: recombinant NL4-3 virus (nef section replaced with Renilla luciferase gene) in MT-2 cells; assay: HIV cell culture assay (antiviral activity, luciferase readout); assay type: cell-based; details: Renilla, NL43, MT-2 cells infected for 4-5 days with recombinant NL4-3 Renilla luciferase virus, serial dilutions of compound
Protocol: HIV cell culture assay—MT-2 cells, 293T cells and the proviral DNA clone of NL4-3 virus were obtained from the NIH AIDS Research and Reference Reagent Program. MT-2 cells were propagated in RPMI 1640 media supplemented with 10% heat inactivated fetal bovine serum (FBS), 100 μg/ml penicillin G and up to 100 units/mL streptomycin. The 293T cells were propagated in DMEM media supplemented with 10% heat inactivated FBS, 100 μg/mL penicillin G and 100 μg/mL streptomycin. A recombinant NL4-3 proviral clone, in which a section of the nef gene was replaced with the Renilla luciferase gene, was used to make the reference virus used in these studies. The recombinant virus was prepared through transfection of the recombinant NL4-3 proviral clone into 293T cells using Transit-293 Transfection Reagent from Mirus Bio LLC (Madison, Wis.). Supernatent was harvested after 2-3 days and the amount of virus present was titered in MT-2 cells using luciferase enzyme activity as a marker by measuring luciferase enzyme activity. Luciferase was quantitated using the EnduRen Live Cell Substrate from Promega (Madison, Wis.). Antiviral activities of compounds toward the recombinant virus were quantified by measuring luciferase activity in MT-2 cells infected for 4-5 days with the recombinant virus in the presence of serial dilutions of the compound.
The 50% effective concentration (EC50) was calculated by using the exponential form of the median effect equation where (Fa)=1/[1+(ED50/drug conc.)^m] (Johnson VA, Byington RT. Infectivity Assay. In Techniques in HIV Research. ed. Aldovini A, Walker BD. 71-76. New York: Stockton Press. 1990). Curve fitting and analysis were performed with ActivityBase XE Runner software version 9.1.0.4 using model 203 (ID Business Solutions, LTD, Guildford, UK).

[2] = Compound cytotoxicity, XTT-based colorimetric assay; assay type: cell-based; details: human, uninfected MT2 cells, day 4, XTT
Protocol: Compound cytotoxicity and the corresponding CC50 values were determined using the same protocol as described in the antiviral assay except that uninfected cells were used. Cytotoxicity was assessed on day 4 in uninfected MT2 cells by using a XTT (2,3-bis[2-Methoxy-4-nitro-5-sulfophenyl]-2H-tetrazolium-5-carboxyanilide inner salt)-based colorimetric assay (Sigma-Aldrich, St Louis, Mo.).

| Structure (SMILES) | EC50 [1] | CC50 at 4 day [2] |
| --- | --- | --- |
| Cc1cc(-c2ccc3c(=O)n(-c4ccc(Cl)c5c(NS(C)(=O)=O)nn(C)c45)c([C@H](Cc4cc(F)cc(F)c4)NC(=O)Cn4nc(C(F)F)c5c4C(F)(F)[C@@H]4C[C@H]54)nc3c2)ccc1Cl (atropisomer, axis not shown; (aR)) [Example 31, N-((S)-1-(3-(4-chloro-1-methyl-3-(methylsulfonamido)-1H-indazol-7-yl)-7-(4-chloro-3-methylphenyl)-4-oxo-3,4-dihydroquinazolin-2-yl)-2-(3,5-difluorophenyl)ethyl)-2-((3bS,4aR)-3-(difluoromethyl)-5,5-difluoro-3b,4,4a,5-tetrahydro-1H-cyclopropa[3,4]cyclopenta[1,2-c]pyrazol-1-yl)acetamide] | 4.7 nM | > 1000 nM |
| Cn1nc(NS(C)(=O)=O)c2c(Cl)ccc(-n3c([C@H](Cc4cc(F)cc(F)c4)NC(=O)Cn4nc(C(F)F)c5c4C(F)(F)[C@@H]4C[C@H]54)nc4cc(-c5ccc(C(=O)N6CCCCC6)cc5)ccc4c3=O)c21 (atropisomer, axis not shown; (aR)) [Example 34, N-((S)-1-(3-(4-chloro-1-methyl-3-(methylsulfonamido)-1H-indazol-7-yl)-4-oxo-7-(4-(piperidine-1-carbonyl)phenyl)-3,4-dihydroquinazolin-2-yl)-2-(3,5-difluorophenyl)ethyl)-2-((3bS,4aR)-3-(difluoromethyl)-5,5-difluoro-3b,4,4a,5-tetrahydro-1H-cyclopropa[3,4]cyclopenta[1,2-c]pyrazol-1-yl)acetamide] | 0.46 nM | > 1000 nM |
| Cn1nc(NS(C)(=O)=O)c2c(Cl)ccc(-n3c([C@H](Cc4cc(F)cc(F)c4)NC(=O)Cn4nc(C(F)F)c5c4C(F)(F)[C@@H]4C[C@H]54)nc4cc(-c5ccc(F)c(C(=O)O)c5)ccc4c3=O)c21 (atropisomer, axis not shown; (aR)) [Example 38, 5-(3-(4-chloro-1-methyl-3-(methylsulfonamido)-1H-indazol-7-yl)-2-((S)-1-(2-((3bS,4aR)-3-(difluoromethyl)-5,5-difluoro-3b,4,4a,5-tetrahydro-1H-cyclopropa[3,4]cyclopenta[1,2-c]pyrazol-1-yl)acetamido)-2-(3,5-difluorophenyl)ethyl)-4-oxo-3,4-dihydroquinazolin-7-yl)-2-fluorobenzoic acid] | 10 nM | > 1000 nM |
| Cn1nc(NS(C)(=O)=O)c2c(Cl)ccc(-n3c([C@H](Cc4cc(F)cc(F)c4)NC(=O)Cn4nc(C(F)F)c5c4C(F)(F)[C@@H]4C[C@H]54)nc4cc(-c5cnccn5)ccc4c3=O)c21 (atropisomer, axis not shown; (aR)) [Example 39, N-((S)-1-(3-(4-chloro-1-methyl-3-(methylsulfonamido)-1H-indazol-7-yl)-4-oxo-7-(pyrazin-2-yl)-3,4-dihydroquinazolin-2-yl)-2-(3,5-difluorophenyl)ethyl)-2-((3bS,4aR)-3-(difluoromethyl)-5,5-difluoro-3b,4,4a,5-tetrahydro-1H-cyclopropa[3,4]cyclopenta[1,2-c]pyrazol-1-yl)acetamide] | 0.052 nM | > 1000 nM |
| Cn1nc(NS(C)(=O)=O)c2c(Cl)ccc(-n3c([C@H](Cc4cc(F)cc(F)c4)NC(=O)Cn4nc(C(F)F)c5c4C(F)(F)[C@@H]4C[C@H]54)nc4cc(-c5ncccn5)ccc4c3=O)c21 (atropisomer, axis not shown; (aR)) [Example 40, N-((S)-1-(3-(4-chloro-1-methyl-3-(methylsulfonamido)-1H-indazol-7-yl)-4-oxo-7-(pyrimidin-2-yl)-3,4-dihydroquinazolin-2-yl)-2-(3,5-difluorophenyl)ethyl)-2-((3bS,4aR)-3-(difluoromethyl)-5,5-difluoro-3b,4,4a,5-tetrahydro-1H-cyclopropa[3,4]cyclopenta[1,2-c]pyrazol-1-yl)acetamide] | 0.025 nM | > 1000 nM |
| CC(C)c1cccc(-c2ccc3c(=O)n(-c4ccc(Cl)c5c(NS(C)(=O)=O)nn(C)c45)c([C@H](Cc4cc(F)cc(F)c4)NC(=O)Cn4nc(C(F)F)c5c4C(F)(F)[C@@H]4C[C@H]54)nc3c2)c1 (atropisomer, axis not shown; (aR)) [Example 41, N-((S)-1-(3-(4-chloro-1-methyl-3-(methylsulfonamido)-1H-indazol-7-yl)-7-(3-isopropylphenyl)-4-oxo-3,4-dihydroquinazolin-2-yl)-2-(3,5-difluorophenyl)ethyl)-2-((3bS,4aR)-3-(difluoromethyl)-5,5-difluoro-3b,4,4a,5-tetrahydro-1H-cyclopropa[3,4]cyclopenta[1,2-c]pyrazol-1-yl)acetamide] | 4.5 nM | > 1000 nM |
| Cn1nc(NS(C)(=O)=O)c2c(Cl)ccc(-n3c([C@H](Cc4cc(F)cc(F)c4)NC(=O)Cn4nc(C(F)F)c5c4C(F)(F)[C@@H]4C[C@H]54)nc4cc(-c5ccccc5Cl)ccc4c3=O)c21 (atropisomer, axis not shown; (aR)) [Example 43, N-((S)-1-(3-(4-chloro-1-methyl-3-(methylsulfonamido)-1H-indazol-7-yl)-7-(2-chlorophenyl)-4-oxo-3,4-dihydroquinazolin-2-yl)-2-(3,5-difluorophenyl)ethyl)-2-((3bS,4aR)-3-(difluoromethyl)-5,5-difluoro-3b,4,4a,5-tetrahydro-1H-cyclopropa[3,4]cyclopenta[1,2-c]pyrazol-1-yl)acetamide] | 0.69 nM | > 1000 nM |
| Cn1nc(NS(C)(=O)=O)c2c(Cl)ccc(-n3c([C@H](Cc4cc(F)cc(F)c4)NC(=O)Cn4nc(C(F)F)c5c4C(F)(F)[C@@H]4C[C@H]54)nc4cc(-c5cccc(F)c5CO)ccc4c3=O)c21 (atropisomer, axis not shown; (aR)) [Example 44, N-((S)-1-(3-(4-chloro-1-methyl-3-(methylsulfonamido)-1H-indazol-7-yl)-7-(3-fluoro-2-(hydroxymethyl)phenyl)-4-oxo-3,4-dihydroquinazolin-2-yl)-2-(3,5-difluorophenyl)ethyl)-2-((3bS,4aR)-3-(difluoromethyl)-5,5-difluoro-3b,4,4a,5-tetrahydro-1H-cyclopropa[3,4]cyclopenta[1,2-c]pyrazol-1-yl)acetamide] | 0.12 nM | > 1000 nM |
| Cn1nc(NS(C)(=O)=O)c2c(Cl)ccc(-n3c([C@H](Cc4cc(F)cc(F)c4)NC(=O)Cn4nc(C(F)F)c5c4C(F)(F)[C@@H]4C[C@H]54)nc4cc(-c5cccc(C(C)(C)C)c5)ccc4c3=O)c21 (atropisomer, axis not shown; (aR)) [Example 45, N-((S)-1-(7-(3-(tert-butyl)phenyl)-3-(4-chloro-1-methyl-3-(methylsulfonamido)-1H-indazol-7-yl)-4-oxo-3,4-dihydroquinazolin-2-yl)-2-(3,5-difluorophenyl)ethyl)-2-((3bS,4aR)-3-(difluoromethyl)-5,5-difluoro-3b,4,4a,5-tetrahydro-1H-cyclopropa[3,4]cyclopenta[1,2-c]pyrazol-1-yl)acetamide] | 4.5 nM | > 1000 nM |
| COc1cccc(-c2ccc3c(=O)n(-c4ccc(Cl)c5c(NS(C)(=O)=O)nn(C)c45)c([C@H](Cc4cc(F)cc(F)c4)NC(=O)Cn4nc(C(F)F)c5c4C(F)(F)[C@@H]4C[C@H]54)nc3c2)n1 (atropisomer, axis not shown; (aR)) [Example 46, N-((S)-1-(3-(4-chloro-1-methyl-3-(methylsulfonamido)-1H-indazol-7-yl)-7-(6-methoxypyridin-2-yl)-4-oxo-3,4-dihydroquinazolin-2-yl)-2-(3,5-difluorophenyl)ethyl)-2-((3bS,4aR)-3-(difluoromethyl)-5,5-difluoro-3b,4,4a,5-tetrahydro-1H-cyclopropa[3,4]cyclopenta[1,2-c]pyrazol-1-yl)acetamide] | 0.56 nM | > 1000 nM |
| Cn1nc(NS(C)(=O)=O)c2c(Cl)ccc(-n3c([C@H](Cc4cc(F)cc(F)c4)NC(=O)Cn4nc(C(F)F)c5c4C(F)(F)[C@@H]4C[C@H]54)nc4cc(-c5ccc(Cl)cc5)ccc4c3=O)c21 (atropisomer, axis not shown; (aR)) [Example 51, N-((S)-1-(3-(4-chloro-1-methyl-3-(methylsulfonamido)-1H-indazol-7-yl)-7-(4-chlorophenyl)-4-oxo-3,4-dihydroquinazolin-2-yl)-2-(3,5-difluorophenyl)ethyl)-2-((3bS,4aR)-3-(difluoromethyl)-5,5-difluoro-3b,4,4a,5-tetrahydro-1H-cyclopropa[3,4]cyclopenta[1,2-c]pyrazol-1-yl)acetamide] | 3.3 nM | > 1000 nM |

From patent US11505543B2, “4-oxo-3,4-dihydroquinazoline compounds as inhibitors of human immunodeficiency virus replication” (VIIV HEALTHCARE UK (NO.5) LIMITED, priority 2018, dated 2022)
